According to ChEMBL document CHEMBL1156829 (Proc Natl Acad Sci U S A, 2008):

Experiments:
[1] = tested on: Plasmodium falciparum; experiment: NOVARTIS: Inhibition of Plasmodium falciparum 3D7 (drug-susceptible) proliferation in erythrocyte-based infection assay; assay type: functional, organism-based; conditions: Plasmodium falciparum, 3D7
[2] = tested on: Plasmodium falciparum; experiment: NOVARTIS: Inhibition of Plasmodium falciparum W2 (drug-resistant) proliferation in erythrocyte-based infection assay; assay type: functional, organism-based; conditions: Plasmodium falciparum, W2; read-out: EC50
[3] = NOVARTIS: Cytotoxicity against human hepatocellular carcinoma cell line (Huh7); assay type: toxicity, cell-based, Huh-7; conditions: Huh7 cells (hepatocellular carcinoma cell line)

Row | SMILES | EC50 [1] [nM] | EC50 [2] [nM] | CC50 [3] [nM]
1 | O=C1CC(N2CCCCCC2)C(=O)N1c1ccc(N2C(=O)CC(N3CCCCCC3)C2=O)cc1 (configuration not stated) | > 1250 | > 155 | > 10000
2 | Cc1nc(Cl)cc(N2CCc3c(nc(N4CC(C)OC(C)C4)[nH]c3=O)C2)n1 (configuration not stated) | 176 | > 1250 | > 10000
3 | O=C(Cn1c2ccccc2c(=O)c2ccccc21)Nc1ccc([N+](=O)[O-])c(Br)c1 | 1110 | 632 | > 100000
4 | COc1ccccc1C(=O)NC1CCN(CC(O)CN(Cc2ccccc2)S(=O)(=O)c2ccccc2)C1 (configuration not stated) | 215 | 115 | > 10000
5 | c1ccc(-c2nc3cc4ccccc4cc3nc2-c2ccsc2)cc1 | 3440 | 2830 | > 100000
6 | CC1CN(C)C(C)CC1=NOC(=O)c1ccc(Cl)c(Cl)c1 (configuration not stated) | > 1250 | > 848 | > 10000
7 | COc1ccc(-c2cnc3ccc(NCc4cccc(Cl)c4)nn23)cn1 | 805 | 1130 | 68900
8 | c1cncc(-c2ncc(-c3cnccn3)c(-c3cccnc3)n2)c1 | > 1250 | > 374 | > 10000
9 | CN1CCN=C1c1ccc(NC(=O)Nc2ccc(NC(=O)Nc3ccc(C4=NCCN4C)cc3)cc2)cc1 | 158 | 124 | > 10000
10 | CC(=O)N1CCOC1C(C)(C)C/C=C(\C)CCC=C(C)C (configuration not stated) | 806 | > 1690 | > 14100
11 | CCCOC(=O)C1=C(C)NC2=C(C(=O)CC(c3ccc(Cl)cc3)C2)C1c1ccccc1F (configuration not stated) | 254 | 18.6 | > 100000
12 | CCN1CCN(c2cc(C)c3cc(NC(=O)c4cc(OC)cc(OC)c4)ccc3n2)CC1 | 183 | 587 | 12900
13 | Cc1noc(-c2ccc(O)cc2O)c1-c1ccc2c(c1)OCCCO2 | 470 | 209 | > 10000
14 | Cc1nc2ccc(NC(=O)C3CC3)cc2c(=O)n1Cc1ccc(Cl)cc1 | 1170 | 1820 | > 100000
15 | CC[n+]1c(/C=C/c2ccc(C)cc2)ccc2ccccc21 | 97.4 | 119 | > 10000
16 | Cc1sc2sc(-c3ccccc3)c(N)[n+]2c1C | 1050 | 1630 | > 100000
17 | Cc1cc(C)c(S(=O)(=O)NCc2ccc(Cl)cc2)c(C)c1 | > 12500 | 6590 | 48900
18 | CCOC(=O)c1c(NC(=O)CSc2nnc(CNC(=O)c3cccs3)n2-c2cccc(Cl)c2)sc2c1CCCC2 | > 1140 | > 1240 | > 10000
19 | CC12CN3CC(C)(CN(C1)C3c1ccccc1)C2=O (configuration not stated) | > 11200 | > 10000 | > 100000
20 | COc1cccc(CCOc2ccc3c(c2)C(=O)N(C(C(=O)NC(C)(C)C)c2cccc(OC)c2)C(CO)C(=O)N3)c1 (configuration not stated) | 153 | 169 | > 9100
21 | COc1ccc(CNC2CCN(c3cccc(NC(=O)C4CC4)c3)CC2)cc1 | 2950 | 948 | 65100
22 | CCC(C(=O)Oc1ccccc1-c1nc2ccccn2c1NC(C)(C)CC(C)(C)C)c1ccccc1 (configuration not stated) | 685 | 32.9 | > 10000
23 | COC(=O)C1=C(C)NC2=C(C(=O)CC(C)(C)C2)C1c1ccc(C)o1 (configuration not stated) | 1580 | 638 | > 100000

Row | SMILES | EC50 [1] [nM] | EC50 [2] [nM] | CC50 [3] [nM]
24 | CCn1c(=NC(=O)c2cc(=O)c3ccccc3o2)sc2c(OC)ccc(OC)c21 | 1500 | 55.6 | > 10000
25 | C=C[C@H]1CN2CC[C@H]1C[C@H]2[C@H](OC(=O)c1ccc(Cl)cc1)c1ccnc2ccccc12 | 412 | 564 | > 10000
26 | CC1(C)C(=O)C2(CCCCC2)C(=O)OC1C=Cc1ccccc1 (configuration not stated) | > 12500 | 1540 | > 100000
27 | O=C1CN=C(c2ccccc2)c2cc(Cl)ccc2N1Cc1cc(=O)n2ccccc2n1 | 3550 | 344 | > 100000
28 | COc1ccc2nc3cc(Cl)ccc3c(NCCN(CCN)CCN)c2c1 | 808 | 254 | > 10000
29 | COc1ccc(N(CCCNC(=O)CCl)C(=O)Nc2cccc(Cl)c2)cc1 | > 1600 | 1150 | > 10000
30 | O=C(Nc1cccc(Cl)c1)Nc1cc(C(F)(F)F)cc(C(F)(F)F)c1 | 3220 | > 9990 | 19500
31 | COc1ccccc1-n1c(=O)c2c3c(sc2n2c(C)nnc12)CCC3 | > 1250 | > 1190 | > 10000
32 | CCOc1ccc(CN(C(=O)COc2ccc(Cl)cc2)C(C)CCCN(CC)CC)cc1 (configuration not stated) | 387 | 1320 | 18900
33 | CC(C)[C@@]1(NC(=O)[C@@H]2C[C@@H]3c4cccc5[nH]cc(c45)C[C@H]3N(C)C2)O[C@@]2(O)[C@@H]3CCCN3C(=O)[C@H](Cc3ccccc3)N2C1=O [DIHYDROERGOCRISTINE] | 1250 | 449 | 33100
34 | Cc1ccc(S(=O)(=O)NC(Cc2ccccc2)C(=O)N2CCC(C3CCN(C(=O)c4ccc([N+](=O)[O-])o4)CC3)CC2)cc1 (configuration not stated) | 1910 | > 1680 | > 10000
35 | CN(C)c1cc[n+](Cc2ccccc2)cc1 | 2420 | > 4870 | > 100000
36 | CC(C)(C)CC(C)(C)Nc1c(-c2ccccc2OC(=O)/C=C/c2ccccc2)nc2ccccn12 | 457 | 34 | > 10000
37 | CCOc1c(Br)cc(C2C(C(=O)OC)=CN(C)C=C2C(=O)OC)cc1OC | 292 | 263 | > 100000
38 | COc1ccc(C=CC(=O)Nc2ccncc2)cc1OC | 358 | 1070 | > 100000
39 | CC(=O)N(C1=C(N(C)C)C(=O)c2ccccc2C1=O)c1cccc(O)c1 | 46.7 | 58.2 | > 10000
40 | CSc1ccccc1CN1CCc2nc(N3CCCCC3)sc2C1 | 369 | 38.1 | > 10000
41 | O=C(C1CC1)n1cc(C(=O)C(F)(F)F)c2ccccc21 | 1370 | > 1220 | > 10000
42 | CCCCOc1ccc(C=CC(=O)NCc2ccco2)cc1 | 1070 | 717 | > 100000
43 | CC(C)CNc1nc(NCCCN2CCCC2)ncc1C(=O)NCCc1ccccc1 | 719 | > 1250 | > 10000
44 | CCOC(=O)C1=C(C)NC2=C(C(=O)CC(c3ccc(Cl)cc3)C2)C1c1ccc(F)cc1 (configuration not stated) | 95 | 42.8 | > 100000
45 | CCCc1ccc(C(=O)NC(=O)c2ccccc2O)cc1 | 193 | 325 | 16500
46 | FC(F)(F)c1cccc(NC(=S)N2CCCC2c2ccccc2C(F)(F)F)c1 (configuration not stated) | 214 | < 13 | > 10000

Row | SMILES | EC50 [1] [nM] | EC50 [2] [nM] | CC50 [3] [nM]
47 | Cc1nc2cc(-c3ccc(F)cc3)nn2c(NCCCn2ccnc2)c1C | 990 | 776 | > 10000
48 | CCCC(=O)Oc1ccccc1-c1nc2cc(C)ccn2c1NC(C)(C)CC(C)(C)C | 3550 | 1890 | > 100000
49 | Cc1cc(C)n2nc(-c3ccc(Cl)cc3)cc2n1 | > 685 | > 1250 | > 10000
50 | COc1cc(-c2cc(C(F)(F)F)n3ncc(C(=O)Nc4cc(C)ccc4O)c3n2)cc(OC)c1OC | 180 | 70 | > 100000
51 | CC[n+]1c(C=Cc2ccc(OC)cc2)ccc2ccccc21 | 690 | 1480 | 10300
52 | CCCCn1c(=N)n(CC(O)c2ccc(Cl)c(Cl)c2)c2ccccc21 (configuration not stated) | 62.5 | 120 | 6240
53 | CNC(=O)NNC(=O)c1cccnc1 | > 12500 | > 7470 | > 100000
54 | Cc1cc(C(C)(C)C)cc(S(=O)(=O)NCCO)c1C | > 12500 | 377 | > 100000
55 | CN1CCN(c2nc(NN=Cc3cccc(Cl)c3)nc(Nc3ccc([N+](=O)[O-])cc3)n2)CC1 | 500 | 290 | 43400
56 | CC(C)N(CCNc1ncnc2c1[nH]c1ccc(Cl)cc12)C(C)C | 262 | 252 | 15200
57 | N#C/C(=C\c1cn(Cc2ccc(Cl)cc2Cl)c2ccccc12)c1nc2ccccc2[nH]1 | 315 | 1150 | > 10000
58 | COc1ccc2oc(=O)c(C(=O)N(C)c3ccc(S(N)(=O)=O)cc3)cc2c1 | > 1250 | > 1010 | > 10000
59 | CC1=NOC(=O)C1=Cc1cccs1 | > 8250 | 776 | 49700
60 | Cc1cc(N2CCC(C)CC2)nc(-n2nc(C)cc2C)n1 | 1100 | 382 | > 100000
61 | COCCN1C(=O)c2[nH]nc(-c3ccccc3O)c2C1c1ccc(SC)cc1 (configuration not stated) | 7390 | 2780 | > 87600
62 | COc1cccc(CNC(=O)Cn2ncc3c(=O)oc4ccc(C)cc4c32)c1 | > 1730 | 1760 | > 10000
63 | CCc1n(CC(=O)OC2CC(C)CCC2C(C)C)c2ccccc2[n+]1C (configuration not stated) | 267 | 203 | 29900
64 | OC(CN1CCN(Cc2ccccc2)CC1)Cn1c2ccc(Br)cc2c2cc(Br)ccc21 (configuration not stated) | 296 | 57.3 | 29000
65 | Oc1ccc(-c2cncc(NCc3ccc(Cl)cc3)c2)cc1 | 439 | 405 | > 10000
66 | O=C(c1cnn(-c2ccccc2)c1C(F)(F)F)N1CCN(c2ccnc3cc(Cl)ccc23)CC1 | 349 | 88.2 | > 100000
67 | COc1cc(NC(=O)Cn2ncc3c(=O)oc4ccccc4c32)cc(OC)c1OC | > 12500 | 7830 | > 100000
68 | CC1=C(C(=O)OC(C)C)C(c2ccccc2Cl)C2=C(CC(c3ccccc3)CC2=O)N1 (configuration not stated) | 297 | 38.4 | > 64200
69 | COC(=O)C1=C(C)N/C(=C\c2cc(C)n(-c3cc(C)ccc3OC)c2C)C1=O | 400 | > 1250 | > 10000
